Data reported in paper PMC9785921, “Evaluation of Chiral Organosulfur Compounds on Their Activity against the Malaria Parasite Plasmodium falciparum” (Tropical Medicine and Infectious Disease, 2022).
Read-outs that look alike come from different tables or passages of the source.

Key:
[1] = test system: non-infected erythrocytes; test: Hemolytic assay; type: cell-based, human; conditions: IC50 and IC90 concentrations, 48 h, 37 °C, compared with 0.5% v/v DMSO
Method: Since the malaria parasite replicates in the red blood cell, we determined if the compounds have an effect on non-infected erythrocytes using hemolytic assays. To this end, 1 mL of washed uninfected erythrocytes at 5% hematocrit in regular medium was plated in triplicate in a 96-well plate (200 µL/well) in the presence of compounds at IC50 and IC90 concentrations. Erythrocytes treated with 0.15% w/v saponin were used as lysis control and 0.5% v/v DMSO was used as the negative control. Following 48 h of incubation at 37 °C, the plate was centrifuged at 500× g for 2 min and 100 µL of the supernatant was transferred to another plate and the absorbance was measured at 550 nm with a spectrophotometer.
(§1) Figure 4 Hemolytic and cytotoxic effect of compounds. (a) Hemolytic effect of compounds. […] The absorbance of free hemoglobin was measured at OD550 nm in the supernatant and normalized to 0.15% w/v saponin (set to 100%), which served as positive control in the experiments. 0.5% v/v DMSO was used as negative control. (b) Cytotoxicity effect of compounds on Hela cells. The cells were plated in 96-well microtiter plates and cultured overnight at 37 °C. The following day, the old medium was removed and 100 µL of fresh medium containing serially diluted compounds in corresponding wells at final concentrations ranging from 100 µM to 0.8 µM was added and the culture was incubated for 72 h. After incubation, the medium was replaced by 100 µL fresh drug-free medium and 20 µL MTT (5 mg/mL) was added in each well and incubated for 3 h at 37 °C. After 3 h, the MTT preparation was then removed from each well and 100 µL solubilization solution was added. Plates were then placed on a rotator at about 500 rpm at RT until the formazan precipitate was completely resuspended and the OD was measured at 450 nm. The data are representative of three independent experiments.

[2] = test system: P. falciparum NF54 gametocytes; test: Gametocyte toxicity test; type: cell-based, Plasmodium falciparum; conditions: 48 h treatment, then 7 d drug-free; for reduction in stage IV and V gametocyte numbers: compound at IC90 concentration
Method: (§2) Three P. falciparum strains were used for compound testing; a strain sensitive to chloroquine (CQ) 3D7, CQ-resistant strain Dd2 and P. falciparum gametocyte producing NF54 strain. The 3D7 and Dd2 strains were used to investigate the effect of the compounds on asexual blood stage replication. They were cultured in RPMI 1640/HEPES medium (Gibco, Thermo Scientific, Waltham, MA, USA) containing 10 µg/mL gentamicin (Gibco Thermo Scientific, Waltham, MA, USA,), 50 µg/mL hypoxanthine (Sigma-Aldrich, St. Louis, MO, USA), 0.5% v/v Albumax II (Gibco, Thermo Scientific, Waltham, MA, USA) and 5% hematocrit. Cultures were maintained at 37 °C using a gas mixture containing 5% CO2, 5% O2 and 90% N2. […] To obtain highly synchronized cultures, parasite cultures consisting mainly of ring stages were centrifuged, the pellet was resuspended in 10 mL of 5% w/v sorbitol/ddH20 and incubated for 10 min at room temperature. After washing the cells with RPMI to remove residual sorbitol, they were again cultivated, as described above. Erythrocyte concentrate and serum samples were obtained from the Department of Transfusion Medicine, University Hospital Aachen, Germany. The serum samples were mixed and pooled and donors were kept anonymous. The work with blood components from humans was approved by the Ethics commission of the RWTH University Hospital (EK 007/13).
P. falciparum NF54 parasites were cultured at high parasitemia to induce gametocyte formation. Once stage II gametocytes appeared, 1 mL of culture was aliquoted in triplicate in a 24-well plate with compounds at the respective IC50 and IC90 concentrations that was determined from Malstat assay. The gametocytes were again cultivated for 9 d with the daily replacement of medium. For the first 48 h of cultivation, the gametocytes were treated with test compounds, and subsequently compound free medium was used. On day 9, blood smears were prepared and stained with Giemsa and the gametocytemia was determined by counting the numbers of gametocytes stages IV and V in a total number of 1000 erythrocytes.
Figure 3 Effect of organosulfur compounds on gametocyte development. Cultures rich in stage II gametocyte were incubated with compounds at IC50 and IC90 concentrations for 2 d, and again cultivated for another 7 d with daily replacement of medium. The numbers of stage IV and V gametocytes were determined from Giemsa smears and normalized to 0.5% v/v DMSO treatment which served as negative control (set to 100%). Epoxomicin (Epoxo) at 60 nM served as positive control.

[3] = test system: P. falciparum 3D7 strain; test: Malstat assay, asexual blood stages, CQ-sensitive strain 3D7; type: cell-based; conditions: Plasmodium falciparum; for IC50: read-out: IC50 (µM) CQ-Sensitive Strain 3D7; for IC90: 90% inhibitory concentration estimated from the IC50
Method: as §2
(§3) The antiplasmodial effect of the compounds on P. falciparum asexual blood stage development was carried out using the Malstat assay, as described previously. Compounds dissolved in dimethyl sulfoxide (DMSO) were added to 1% ring stage P. falciparum 3D7 and Dd2 cultures (200 µL/well) in a 96-well plate in triplicate at final concentrations ranging from 100 µM to 0.78 µM. […] CQ at concentrations ranging from 500 nM to 4 nM was used as an internal control in the experiments, while parasites treated with 0.5% v/v DMSO served as the negative control. The parasites were cultured with the compounds for 72 h at 37 °C in the presence of the following gas combination: 5% O2, 5% CO2, and 90% N2. Afterwards, 20 µL of the incubated culture was removed and 100 µL of Malstat reagent (0.1% v/v Triton X-100, 1 g of L-lactate, 0.33 g Tris and 33 mg of 3-acetylpyridine adenine dinucleotide in 100 mL of distilled water, pH 9.0) was added in a new 96-well microtiter plate. Next, 20 µL mixture of NBT/Diaphorase (1:1; 1 mg/mL stock each) was added to the Malstat reaction and the parasite lactate dehydrogenase activity was then quantified by measuring the optical densities at 630 nm. IC50 values were then determined from variable-slope sigmoidal dose-response graphs using the GraphPad Prism program version 5 (GraphPad Software Inc., La Jolla, San Diego, CA, USA).

[4] = MTT cytotoxicity assay, Hela cells; type: cell-based; conditions: human, Hela cells (human cervical cancer cell line); for viability at 72 h: about 25 µM
Method: The MTT [3-(4,5-dimethylthiazol-2-yl)-2,5-diphenyltetrazolium bromide] assay was performed using the human cervical cancer cell (Hela) line and the hematologic malignancy human erythroleukemia (HEL) cell line to determine if the compounds were toxic (loss of viability) against human cells. MTT is taken up by viable cells and converted by mitochondrial dehydrogenases to a violet formazan product that cannot diffuse through cell membranes, and therefore crystallizes in viable cells. The adherent Hela cells were plated in 96-well microtiter plates and cultured at 37 °C overnight. Compounds were added to the cultures in different serial concentrations in triplicate the next day, and the cells were incubated for 72 h. DMSO was used as the negative control at a final concentration of 0.5% v/v, and a concentration of 15% v/v DMSO which is toxic was added as the positive control. After 72 h of drug treatment, medium-containing drug was replaced with 100 µL fresh drug-free medium. Then, 20 µL MTT (5 mg/mL) was added to each well and incubated for 3 h at 37 °C. The medium was subsequently removed and 100 µL solubilization solution (5% w/v SDS, 0.1 M HCl in 100% vol. DMSO) was added and incubated for 30 min under rotation at room temperature to solubilize the formazan crystals.
For both cell lines, the optical density (OD) of the solution was measured at 550 nm. The OD-values of cultures treated with compounds were normalized to the OD-values of 0.5% v/v DMSO control (set to 100% viability for Hela or 1 for HEL cell line). IC50 values were calculated from MTT assays using Graphpad Prism (V9).
as §1

[5] = test system: P. falciparum Dd2 strain; test: Malstat assay, asexual blood stages, CQ-resistant strain Dd2; type: cell-based; conditions: Plasmodium falciparum, read-out: IC50 (µM) CQ-Resistant Strain Dd2
Method: as §2, §3

[6] = 3D7, ring stage parasites, 72 h, Malstat (plasmodial LDH)

Row | SMILES | IC50 [3, 6] [µM] | IC90 ([3]; 3D7) [µM] | hemolytic effect [1] | viability at 72 h, 50 µM [4] [%] | viability at 72 h [4] [%] | further results
1 | CCOC(=O)C1=C(C)N=S2(=NC(c3ccccc3)=CC(c3ccc(Cl)cc3)=C2)c2ccccc21 (stereo not drawn) [Compound 2] | 3.12 ± 0.58 | 27.9 | no hemolytic effect | > 60 | > 90 | reduction of mature gametocyte numbers (in words) ([2]; compound at IC50 concentration): only minor reduction; reduction in stage IV and V gametocyte numbers [2]: very high reduction
2 | CCN(CC)CCCC(C)Nc1ccnc2cc(Cl)ccc12 (stereo not drawn) [Chloroquine, reference compound] |  |  |  |  |  | IC50 ([5]; DD2, 72 h): 0.14 ± 0.063 µM; IC50 ([3]; 3D7, 72 h): 0.02 ± 0.004 µM
3 | CCOC(=O)C1=C(C)N=S2(=NC(c3ccccc3)=CC(c3ccccc3)=C2)c2ccccc21 (stereo not drawn) [Compound 1] | 3.8 ± 0.66 | 34.2 | no hemolytic effect | > 60 | > 90 | reduction of mature gametocyte numbers (in words) ([2]; compound at IC50 concentration): only minor reduction; reduction in stage IV and V gametocyte numbers [2]: very high reduction
4 | CCOC(=O)C1=C(c2cccs2)N=S(=O)(N2CCCCCC2)c2c(C)cccc21 (stereo not drawn) [Compound 7] | 35.8 ± 5.11 |  |  |  |  | 
5 | O=S1(N2CCCCCC2)=NC(c2ccccc2)=Cc2ccccc21 (stereo not drawn) [Compound 10] | 46.4 ± 2.67 |  |  |  |  | 

Further lines, with some results ahead:

Row | IC50 [3, 6] [µM] | IC90 ([3]; 3D7) [µM] | SMILES | hemolytic effect [1] | viability at 72 h, 50 µM [4] [%] | viability at 72 h [4] [%] | further results
6 | 26.5 ± 1.19 |  | CCOC(=O)C1=C(c2ccccc2)N=S(=O)(N2CCCCCC2)c2ccccc21 (stereo not drawn) [Compound 18] |  |  |  | 
7 | 24.9 ± 1.06 |  | O=[S@@]1(c2ccccc2)=Nc2ccccc2-c2ncc3ccccc3c21 [Compound 23] |  |  |  | 
8 | 3.1 ± 0.26 | 27.9 | CCOC(=O)C1=C(c2ccc(C)cc2)N=S(=O)(N2CCCCCC2)c2ccccc21 (stereo not drawn) [Compound 16] | no hemolytic effect | > 60 | > 90 | IC50 ([5]; DD2, ring stage parasites, 72 h, Malstat): 4.4 ± 0.59 µM; reduction of mature gametocyte numbers ([2]; compound at IC50 concentration): about 50%
9 | 5.2 ± 1.95 | 46.8 | CCOC(=O)C1=C(C)N=S(=O)(N2CCCCCC2)c2ccc([N+](=O)[O-])cc21 (stereo not drawn) [Compound 15] | no hemolytic effect | > 60 | > 90 | reduction of mature gametocyte numbers (in words) ([2]; compound at IC50 concentration): only minor reduction; reduction in stage IV and V gametocyte numbers [2]: very high reduction
10 | 31.5 ± 4.9 |  | CCOC(=O)C1=C(c2cccs2)N=S(=O)(N2CCCCCC2)c2ccccc21 (stereo not drawn) [Compound 19] |  |  |  | 
11 | 20.3 ± 1.69 |  | O=S1(N2CCCCCC2)=NC(c2ccccc2)=Cc2cccc(Cl)c21 (stereo not drawn) [Compound 13] |  |  |  | 
